Reference: patent US9907791B2, “Ron inhibitors for use in preventing and treating bone loss” (UNIVERSITY OF UTAH RESEARCH FOUNDATION, priority 2014, dated 2018)

System: PyMT-MSP tumor cells
Assay: Intratibial PyMT-MSP tumor-induced osteolysis
Type: in vivo, mice
Source text: All procedures involving mice and experimental protocols were approved by the Institutional Animal Care and Use Committee (IACUC) of the University of Utah. The RonTK−/− mice which reside on the FVB background, were crossed with NOD.SCID mice for an immune-compromised mouse model. As a control, wild-type FVB mice were also crossed with NOD.SCID mice. The STK−/− mice, which are on a C57BL/6 background, were compared to wild-type C57BL/6 mice as controls. Mice for all experiments were 6 to 8 weeks of age. For intratibial injections, 1×10^5 (PyMTor DU4475) or 3×10^5 (MDA-MB-231) tumor cells were resuspended in 10 μL matrigel and injected into the right tibia of anesthetized female FVB (PyMT) or NOD.SCID mice carrying various alleles of RON. Osteolysis was assessed by X-ray radiography. Dissected hindlimbs from mice sacrificed at the final time point in each experiment were placed in the Kodak In-vivo Multispectral Imaging System FX and exposed to X-ray radiography at 35 kV for 100 sec. Excess tumor tissue was removed from the bones prior to X-ray. Osteolytic lesions were quantified using Image J software (NCBI). All images were compared to the contralateral leg as an internal control.
Hindlimb bones were excised from mice at the time of sacrifice and bones were fixed in 10% neutral-buffered formalin, decalcified in Formical-2000 (Decal Corporation, Tallman, N.Y.) for 8 days and embedded in paraffin for hematoxylin and eosin (H & E) or immunohistochemical staining. Osteoclast number was assessed as TRAP^+ multinucleated cells containing 4 or more nuclei and reported as TRAP^+ cells per field. Three sections per mouse and 5 fields per section were used for quantification with fields representing the entire length of the tibia. Tumor proliferation rate was reported as the number of cells which were positive for phospho-H3 staining compared to the number of unstained cells per field expressed as a percent. Three sections per mouse and 5 fields per section were used for quantification with analysis being restricted to within the bone marrow cavity. Immunohistochemical analysis was performed with heat-induced antigen retrieval in sodium-citrate buffer (Dako, Denmark). Primary antibodies used were anti-TRAP at 1:50 (Santa Cruz, sc-30833, Dallas, Tex.), anti-Ki67 at 1:100 (Santa Cruz, sc-12202S, Dallas, Tex.), anti-phosphoH3 at 1:100 (Cell Signaling, #9701, Beverly, Mass.), anti-NFATc1 at 1:50 (Santa Cruz, sc-13033, Dallas, Tex.), and anti-RON at 1:250 (Santa Cruz, sc-322, Dallas, Tex.). Bones from mice lacking RON were used as a negative control. Biotinylated secondary antibody was used with the EnVision^+ system HRP kit (Dako, Denmark) and nuclei counterstained with hematoxylin.
For in vivo experiments, the OSI-296 inhibitor was dissolved in 40% Trappsol with 0.01 M HCl, and mice were treated at a concentration of 200 mg/kg daily by oral gavage. Treatment began either 3 days after tumor cell injection for prophylactic experiments, or 3 weeks after tumor cell injection for therapeutic experiments. ASLAN002 was dissolved in 70% PEG400 with 1×PBS and mice were treated at a concentration of 50 mg/kg daily by oral gavage. muRANK-Fc was given at a concentration of 10 mg/kg every three days by intra-peritoneal injection. For the osteoporosis study, mice were treated beginning on the day after ovary removal. The treatment regimen for OSI-296 was 200 mg/kg every other day by oral gavage. ASLAN002 was administered at 50 mg/kg every other day by oral gavage. Treatment continued until the time of sacrifice at 28 days.

In the case of CCOc1ccn(-c2ccc(F)cc2)c(=O)c1C(=O)Nc1ccc(Oc2ccnc(N)c2Cl)c(F)c1 [ASLAN002], the inhibition of osteolysis (PyMT-MSP tumors, treatment beginning three days after tumor injection, average) is reported as 6-10 fold and the “PyMT-MSP tumor growth in the bone” value (caliper measurements) is reported as “trend in decreased growth, but did not reach statistical significance”.
